Test results from publication PMC6403271, “Characterization, mechanism of action and optimization of activity of a novel peptide-peptoid hybrid against bacterial pathogens involved in canine skin infections” (Scientific Reports, 2019).
Read-outs that look alike come from different tables or passages of the source. Square brackets hold non-standard residues; d marks the D form. Peptide text beside a SMILES is read from it. N(1-naphthylmethyl)Gly = O=C(O)CNCc1cccc2ccccc12; 1Nal = N[C@@H](Cc1cccc2ccccc12)C(=O)O; 2Nal = N[C@@H](Cc1ccc2ccccc2c1)C(=O)O; d1Nal = N[C@H](Cc1cccc2ccccc12)C(=O)O; d2Nal = N[C@H](Cc1ccc2ccccc2c1)C(=O)O; Nle = CCCC[C@H](N)C(=O)O; Nphe = O=C(O)CNCc1ccccc1; NBuGly = CCCCNCC(=O)O

What was measured:
[1] = tested on: MRSP C22963; assay type: cell-based, Staphylococcus pseudintermedius
Experimental: (§1) Activity of B1 was tested on 50P. aeruginosa isolates and 57S. pseudintermedius isolates (including 7 MRSP) that had been isolated in the diagnostic laboratory Sund Vet Diagnostik (University of Copenhagen) from various infections in dogs between 2009 and 2011. Representative MRSP (C22963), MSSA, and P. aeruginosa (26314) were used for testing the first set of B1 analogues.
(§2) MIC determination was performed by broth microdilution according to the Clinical and Laboratory Standard Institute (CLSI, M31-A3, 2008)[62]. In brief, each bacterial strain was diluted to concentration of 5 × 10^5 CFU/mL in Mueller Hinton broth II (MHB II) media (Oxoid) and added to a two-fold serial dilution of peptides and peptide-peptoid hybrids concentrations ranging from 1 to 64 µg/ml in 96-well plates (Nunc Internationals, Rochester, NY). The MICs were determined as a lowest concentration showing no visible growth after incubation for 18 hours at 37 °C. Experiments were performed in triplicates on two different days.

[2] = tested on: P. aeruginosa (26314); assay type: cell-based, Pseudomonas aeruginosa
Experimental: Activity of B1 was tested on […]. aeruginosa isolates and […]. pseudintermedius isolates (including 7 MRSP) that had been isolated in the diagnostic laboratory Sund Vet Diagnostik (University of Copenhagen) from various infections in dogs between 2009 and 2011. Representative […], and P. aeruginosa (26314) were used for testing the first set of B1 analogues. For antibacterial spectrum the following strains were used: Corynebacterium auriscanis, 31551, (54 C6, dog, ear, 2013); Enterococcus faecalis, 27404, (17 C7, dog, wound, 2011); Enterococcus faecium, 30951, (24 C1, dog, ear, 2013); Streptococcus canis, 26740-1, (14 H1, dog, ear, 2010); Staphylococcus aureus, 27266, (16 G9, dog, skin, 2010); Staphylococcus aureus, 27266, (16 G9, dog, skin, 2010); Staphylococcus pseudintermedius 22963, (3 B9, dog, 2007). Acinetobacter baumannii, 27065, (16 D1, dog, wound, 2010); E. coli, 30235, 23 A6, dog, wound, 2012; Klebsiella pneumoniae, 26233, (11 H5, dog, wound, 2010); Pasteurella canis, 31096, (24 C8, dog, skin, 2013); Proteus mirabilis, 25178, (9 A4, dog, ear, 2009); Pseudomonas aeruginosa 26314, 12 C5, dog, urine, 2010). MIC determination was performed by broth microdilution according to the Clinical and Laboratory Standard Institute (CLSI, […]-A3, 2008)[62]. In brief, each bacterial strain was diluted to concentration of 5 × 10^5 CFU/mL in Mueller Hinton broth II (MHB II) media (Oxoid) and added to a two-fold serial dilution of peptides and peptide-peptoid hybrids concentrations ranging from 1 to 64 μg/ml in 96-well plates (Nunc Internationals, Rochester, NY). The MICs were determined as a lowest concentration showing no visible growth after incubation for 18 hours at 37 °C. Experiments were performed in triplicates on two different days.

[3] = tested on: human red blood cells; assay type: cell-based; settings: for EC50: red cells of human, 1 h
Experimental: (§3) Briefly, two-fold serial dilutions (2.35 to 150 μM) of compounds in phosphate buffer saline (PBS) were mixed with equal volume of 0.5% v/v suspension of fresh human red blood cells (RBC) in the same buffer. After 1 h incubation at 37 °C, plates were centrifuged and aliquots of the supernatants were transferred to clear 96-well plates. Absorbance at 414 nm was measured and normalized using a negative (PBS, 0%) and a positive (melittin, 100%) control. The EC10 and EC50 are concentrations at which 10% and 50% of RBC were lysed, respectively, as interpolated graphically by the y-axis intersection of the plotted data.

[4] = assay type: cell-based, human; settings: human
Experimental: as §3

[5] = tested on: MSSA (ATCC 29213); assay type: cell-based, Staphylococcus aureus
Experimental: as §1, §2

Molecule | Minimum Inhibitory Concentration MRSP C22963 ([1]; 18 h) [µg/mL] | Minimum Inhibitory Concentration P. aeruginosa (26314) ([2]; Table 1) [µg/mL] | Haemolysis EC10 [3] [µM] | EC50 [3] [µM] | hemolysis at 1 h, 150 µM [4] [%] | Minimum Inhibitory Concentration P. aeruginosa (26314) ([2]; 26314, 18 h) [µg/mL] | Minimum Inhibitory Concentration MSSA (ATCC 29213) ([5]; ATCC 29213, 18 h) [µg/mL] | Minimum Inhibitory Concentration MRSP C22963 ([1]; Table 1) [µg/mL] | Minimum Inhibitory Concentration MSSA (ATCC 29213) ([5]; Table 1) [µg/mL] | Haemolysis %H 150(µM) ([3]; 150 µM) [%]
CC(C)C[C@@H](NC(=O)[C@H](CCCCN)NC(=O)[C@H](CCCCN)NC(=O)[C@@H](N)CCCCN)C(=O)N[C@H](Cc1cccc2ccccc12)C(=O)N[C@H](Cc1ccc(O)cc1)C(=O)N[C@H](Cc1cccc2ccccc12)C(N)=O [Compound 25, Lys-Lys-Lys-leu-(1-Nal)ala-tyr-(1-Nal)ala] (H-KKK[dL][d1Nal][dY][d1Nal]-NH2; N-terminus assumed) | 2 to 4 | 8 | 38 | 138 | 53 | – | – | – | – | –
CC(C)C[C@@H](NC(=O)[C@H](CCCCN)NC(=O)[C@H](CCCCN)NC(=O)[C@@H](N)CCCCN)C(=O)N[C@H](Cc1ccc2ccccc2c1)C(=O)N[C@H](Cc1ccc(O)cc1)C(=O)N[C@H](Cc1ccc2ccccc2c1)C(N)=O [Compound 28, Lys-Lys-Lys-leu-(2-Nal)ala-tyr-(2-Nal)ala] (H-KKK[dL][d2Nal][dY][d2Nal]-NH2; N-terminus assumed) | 2 to 4 | – | 6 | 50 | 64 | 32 | – | – | – | –
CCCCN(CC(=O)N[C@@H](CCCCN)C(=O)N(CC(=O)N(CC(=O)N(CC(N)=O)Cc1cccc2ccccc12)Cc1ccccc1)Cc1cccc2ccccc12)C(=O)[C@H](CCCCN)NC(=O)[C@@H](N)CCCCN [Compound 2, Lys-Lys-(NBu)Gly-Lys-(N1-Nal)Gly-(NPhe)Gly-(N1-Nal)Gly] (H-KK[NBuGly]K[N(1-naphthylmethyl)Gly][Nphe][N(1-naphthylmethyl)Gly]-NH2; N-terminus assumed) | 4 | – | – | – | < 8 | 32 | 8 to 16 | – | – | –
CC(C)C[C@@H](NC(=O)[C@@H](Cc1cccc2ccccc12)NC(=O)[C@@H](Cc1ccccc1)NC(=O)[C@H](N)Cc1cccc2ccccc12)C(=O)N[C@@H](CCCCN)C(=O)N[C@@H](CCCCN)C(=O)N[C@@H](CCCCN)C(N)=O [Compound 21, (1-Nal)ala-phe-(1-Nal)ala-leu-Lys-Lys-Lys] (H-[d1Nal][dF][d1Nal][dL]KKK-NH2; N-terminus assumed) | 16 | – | – | – | < 8 | 32 | 32 | – | – | –
CC(C)C[C@H](NC(=O)[C@H](CCCCN)NC(=O)[C@H](Cc1cccc2ccccc12)NC(=O)[C@H](Cc1ccccc1)NC(=O)[C@@H](N)Cc1cccc2ccccc12)C(=O)N[C@@H](CCCCN)C(=O)N[C@@H](CCCCN)C(N)=O [Compound 10, (1-Nal)Ala-Phe-(1-Nal)Ala-Lys-Leu-Lys-Lys] (H-[1Nal]F[1Nal]KLKK-NH2; N-terminus assumed) | 8 to 16 | – | – | – | < 8 | 64 | 16 to 32 | – | – | –
CCCCN(CC(=O)N[C@@H](CCCCN)C(=O)N[C@@H](CCCCN)C(N)=O)C(=O)[C@H](CCCCN)NC(=O)CN(Cc1cccc2ccccc12)C(=O)CN(Cc1ccccc1)C(=O)CNCc1cccc2ccccc12 [Compound 5, (N1-Nal)Gly-(NPhe)Gly-(N1-Nal)Gly-Lys-(NBu)Gly-Lys-Lys] (H-[N(1-naphthylmethyl)Gly][Nphe][N(1-naphthylmethyl)Gly]K[NBuGly]KK-NH2; N-terminus assumed) | 8 | – | – | – | < 8 | 32 | 16 | – | – | –
CCCC[C@H](NC(=O)[C@H](CCCCN)NC(=O)[C@H](CCCCN)NC(=O)[C@@H](N)CCCCN)C(=O)N[C@@H](Cc1ccc2ccccc2c1)C(=O)N[C@@H](Cc1ccc(O)cc1)C(=O)N[C@@H](Cc1ccc2ccccc2c1)C(N)=O [Compound 27, Lys-Lys-Lys-Nle-(2-Nal)Ala-Tyr-(2-Nal)Ala] (H-KKK[Nle][2Nal]Y[2Nal]-NH2; N-terminus assumed) | 2 to 4 | – | 3 | 56 | 54 | 64 | – | – | – | –
Lys-Lys-Lys-Leu-(2-Nal)Ala-Tyr-(2-Nal)Ala [Compound 22] | – | >64 | 117 | – | – | – | – | 16 | >64 | 14
CC(C)C[C@@H](NC(=O)[C@H](CCCCN)NC(=O)[C@@H](Cc1ccc2ccccc2c1)NC(=O)[C@@H](Cc1ccccc1)NC(=O)[C@H](N)Cc1ccc2ccccc2c1)C(=O)N[C@@H](CCCCN)C(=O)N[C@@H](CCCCN)C(N)=O [Compound 18, (2-Nal)ala-phe-(2-Nal)ala-Lys-leu-Lys-Lys] (H-[d2Nal][dF][d2Nal]K[dL]KK-NH2; N-terminus assumed) | 16 | – | – | – | < 8 | >64 | 32 to 64 | – | – | –
CC(C)C[C@H](NC(=O)[C@H](Cc1cccc2ccccc12)NC(=O)[C@H](Cc1ccccc1)NC(=O)[C@@H](N)Cc1cccc2ccccc12)C(=O)N[C@@H](CCCCN)C(=O)N[C@@H](CCCCN)C(=O)N[C@@H](CCCCN)C(N)=O [Compound 12, (1-Nal)Ala-Phe-(1-Nal)Ala-Leu-Lys-Lys-Lys] (H-[1Nal]F[1Nal]LKKK-NH2; N-terminus assumed) | 16 | – | – | – | < 8 | >64 | 32 | – | – | –
CC(C)C[C@H](NC(=O)[C@H](CCCCN)NC(=O)[C@H](Cc1ccc2ccccc2c1)NC(=O)[C@H](Cc1ccccc1)NC(=O)[C@@H](N)Cc1ccc2ccccc2c1)C(=O)N[C@@H](CCCCN)C(=O)N[C@@H](CCCCN)C(N)=O [Compound 11, (2-Nal)Ala-Phe -(2-Nal)Ala-Lys-Leu-Lys-Lys] (H-[2Nal]F[2Nal]KLKK-NH2; N-terminus assumed) | 4 to 8 | – | – | – | < 8 | 64 | 16 | – | – | –
CC(C)C[C@@H](NC(=O)[C@@H](Cc1ccc2ccccc2c1)NC(=O)[C@@H](Cc1ccccc1)NC(=O)[C@H](N)Cc1ccc2ccccc2c1)C(=O)N[C@@H](CCCCN)C(=O)N[C@@H](CCCCN)C(=O)N[C@@H](CCCCN)C(N)=O [Compound 19, (2-Nal)ala-phe-(2-Nal)ala-leu-Lys-Lys-Lys] (H-[d2Nal][dF][d2Nal][dL]KKK-NH2; N-terminus assumed) | 16 | – | – | – | < 8 | >64 | 32 | – | – | –
CCCCN(CC(=O)N(CC(=O)N(CC(=O)N(CC(N)=O)Cc1cccc2ccccc12)Cc1ccccc1)Cc1cccc2ccccc12)C(=O)[C@H](CCCCN)NC(=O)[C@H](CCCCN)NC(=O)[C@@H](N)CCCCN [Compound 3, Lys-Lys-Lys-(NBu)Gly-(N1-Nal)Gly-(NPhe)Gly-(N1-Nal)Gly] (H-KKK[NBuGly][N(1-naphthylmethyl)Gly][Nphe][N(1-naphthylmethyl)Gly]-NH2; N-terminus assumed) | 4 | – | – | – | < 8 | 32 | 16 | – | – | –
